Experimental data published in US20030158255A1, “Use of bismuth subgallate in prevention and/or reduction of skin deterioration” (priority 2002, published 2003).

Test system: keratinocyte cells
Assay: Proliferation of keratinocyte (cell count)
Assay type: cell-based
Details: for effect on proliferation of keratinocyte: cell count after 2-12 days of cultivation, FIG. 1
Experimental: The keratinocyte cells were respectively cultivated with the following groups of agents: (a) 0.7 μg/1 ml, 7 μg/ml, 70 μg/ml and 700 μg/ml of bismuth subgallate; (b) 0.1 μg/ml, 1 μg/ml, 10 μg/ml and […]; and (c) 0.7 μg/ml bismuth subgallate in combination with 0.1 μg/ml borneol, 7 μg/ml bismuth subgallate in combination with 1 μg/ml borneol, 70 μg/ml bismuth subgallate in combination with 10 μg/ml borneol and 700 μg/ml bismuth subgallate in combination with 100 μg/ml borneol. After the cells were cultivated after 2, 4, 6, 8, 10 and 12 days respectively, their count was noted to evaluate the proliferation of them.

Row | Molecule | keratinocyte cell number relative to control (70 μg/ml bismuth subgallate, twelfth day) | effect on proliferation of keratinocyte
1 | bismuth subgallate | up to two times of that of control | significant increase in the proliferation of keratinocyte
2 | CC1(C)C2CCC1(C)C(O)C2 (stereo not drawn) [borneol] | – | no significant effect
